Results published in patent US20230416248A1, “COMPOUNDS AND USES THEREOF” (Foghorn Therapeutics Inc., priority 2020, published 2023).

Experiments:
BRM = target: T1, BRM (Homo sapiens, UniProt P51531); test: ATPase catalytic activity of BRM, ADP-Glo in vitro biochemical assay; conditions: for IC50: ADP-Glo ATPase assay, 30 nM BRM, 400 μM ATP; for Ratio* (BRG1 IC50 (μM) divided by BRM IC50 (μM)): selectivity ratio BRG1 IC50 / BRM IC50
T1 construct: made in house; host or cells: High Five insect cells
In short: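 Recombinant BRM (30 nM) hydrolysed 400 μM ATP with 20 nM salmon sperm DNA in pH 8 Tris buffer containing 20 mM MgCl2, 50 mM NaCl, 0.1% Tween-20 and 1 mM DTT, 1 h at room temperature. ADP formed was quantified by ADP-Glo luminescence.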

BRG-1 = target: T2, BRG-1 (Homo sapiens, UniProt P51532); test: ATPase catalytic activity of BRG-1, ADP-Glo in vitro biochemical assay; conditions: ADP-Glo ATPase assay, 30 nM BRG-1, 400 μM ATP; read-out: BRG1 IC50
T2 construct: made in house; host or cells: High Five insect cells
In short: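 Signal reflects ADP produced by the enzyme, quantified as luminescence after unused ATP is cleared and ADP is reconverted to ATP for the luciferase reaction; both steps run at room temperature, 40 and 60 min respectively.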

T2 sequence (P51532 whole entry): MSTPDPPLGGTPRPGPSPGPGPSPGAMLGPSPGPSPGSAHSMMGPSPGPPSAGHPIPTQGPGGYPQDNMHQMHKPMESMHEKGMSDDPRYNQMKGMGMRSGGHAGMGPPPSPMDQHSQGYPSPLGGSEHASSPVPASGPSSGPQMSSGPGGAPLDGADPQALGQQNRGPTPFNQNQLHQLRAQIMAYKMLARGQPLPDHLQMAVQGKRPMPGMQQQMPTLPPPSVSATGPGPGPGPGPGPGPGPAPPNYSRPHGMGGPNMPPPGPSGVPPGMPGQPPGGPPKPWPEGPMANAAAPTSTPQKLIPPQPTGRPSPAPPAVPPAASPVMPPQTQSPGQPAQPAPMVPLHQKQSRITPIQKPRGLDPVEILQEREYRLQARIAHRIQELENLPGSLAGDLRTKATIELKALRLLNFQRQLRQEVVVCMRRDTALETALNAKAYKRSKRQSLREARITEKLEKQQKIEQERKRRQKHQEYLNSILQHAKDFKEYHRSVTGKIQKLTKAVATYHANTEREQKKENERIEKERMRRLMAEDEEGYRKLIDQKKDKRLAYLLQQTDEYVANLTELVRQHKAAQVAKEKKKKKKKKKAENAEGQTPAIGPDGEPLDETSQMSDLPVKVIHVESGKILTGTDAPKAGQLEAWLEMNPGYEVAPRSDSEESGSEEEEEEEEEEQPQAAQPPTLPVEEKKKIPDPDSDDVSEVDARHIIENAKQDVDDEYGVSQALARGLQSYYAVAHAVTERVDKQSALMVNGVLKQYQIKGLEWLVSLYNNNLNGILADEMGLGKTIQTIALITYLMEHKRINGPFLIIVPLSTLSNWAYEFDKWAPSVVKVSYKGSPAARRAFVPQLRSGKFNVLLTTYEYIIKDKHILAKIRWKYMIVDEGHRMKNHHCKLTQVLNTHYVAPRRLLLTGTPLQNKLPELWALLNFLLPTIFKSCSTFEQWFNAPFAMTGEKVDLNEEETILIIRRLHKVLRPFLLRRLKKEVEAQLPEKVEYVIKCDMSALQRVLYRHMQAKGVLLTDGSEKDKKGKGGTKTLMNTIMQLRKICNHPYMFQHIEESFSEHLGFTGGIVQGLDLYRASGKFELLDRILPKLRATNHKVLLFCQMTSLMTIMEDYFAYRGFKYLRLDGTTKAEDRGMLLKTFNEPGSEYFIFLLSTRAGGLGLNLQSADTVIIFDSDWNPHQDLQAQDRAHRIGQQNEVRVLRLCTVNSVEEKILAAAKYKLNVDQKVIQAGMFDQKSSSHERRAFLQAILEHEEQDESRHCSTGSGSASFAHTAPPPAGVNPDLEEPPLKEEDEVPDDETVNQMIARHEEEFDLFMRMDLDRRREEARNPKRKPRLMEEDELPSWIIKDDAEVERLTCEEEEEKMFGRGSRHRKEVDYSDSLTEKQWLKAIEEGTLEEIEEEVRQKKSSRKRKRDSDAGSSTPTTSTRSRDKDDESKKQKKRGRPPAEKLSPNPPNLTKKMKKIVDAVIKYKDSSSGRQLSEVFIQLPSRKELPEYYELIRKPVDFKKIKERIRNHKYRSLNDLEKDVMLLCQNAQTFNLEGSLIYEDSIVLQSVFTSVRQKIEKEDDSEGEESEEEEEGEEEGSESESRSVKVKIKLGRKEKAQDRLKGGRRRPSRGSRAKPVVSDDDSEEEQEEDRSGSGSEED
T1 sequence (P51531 whole entry): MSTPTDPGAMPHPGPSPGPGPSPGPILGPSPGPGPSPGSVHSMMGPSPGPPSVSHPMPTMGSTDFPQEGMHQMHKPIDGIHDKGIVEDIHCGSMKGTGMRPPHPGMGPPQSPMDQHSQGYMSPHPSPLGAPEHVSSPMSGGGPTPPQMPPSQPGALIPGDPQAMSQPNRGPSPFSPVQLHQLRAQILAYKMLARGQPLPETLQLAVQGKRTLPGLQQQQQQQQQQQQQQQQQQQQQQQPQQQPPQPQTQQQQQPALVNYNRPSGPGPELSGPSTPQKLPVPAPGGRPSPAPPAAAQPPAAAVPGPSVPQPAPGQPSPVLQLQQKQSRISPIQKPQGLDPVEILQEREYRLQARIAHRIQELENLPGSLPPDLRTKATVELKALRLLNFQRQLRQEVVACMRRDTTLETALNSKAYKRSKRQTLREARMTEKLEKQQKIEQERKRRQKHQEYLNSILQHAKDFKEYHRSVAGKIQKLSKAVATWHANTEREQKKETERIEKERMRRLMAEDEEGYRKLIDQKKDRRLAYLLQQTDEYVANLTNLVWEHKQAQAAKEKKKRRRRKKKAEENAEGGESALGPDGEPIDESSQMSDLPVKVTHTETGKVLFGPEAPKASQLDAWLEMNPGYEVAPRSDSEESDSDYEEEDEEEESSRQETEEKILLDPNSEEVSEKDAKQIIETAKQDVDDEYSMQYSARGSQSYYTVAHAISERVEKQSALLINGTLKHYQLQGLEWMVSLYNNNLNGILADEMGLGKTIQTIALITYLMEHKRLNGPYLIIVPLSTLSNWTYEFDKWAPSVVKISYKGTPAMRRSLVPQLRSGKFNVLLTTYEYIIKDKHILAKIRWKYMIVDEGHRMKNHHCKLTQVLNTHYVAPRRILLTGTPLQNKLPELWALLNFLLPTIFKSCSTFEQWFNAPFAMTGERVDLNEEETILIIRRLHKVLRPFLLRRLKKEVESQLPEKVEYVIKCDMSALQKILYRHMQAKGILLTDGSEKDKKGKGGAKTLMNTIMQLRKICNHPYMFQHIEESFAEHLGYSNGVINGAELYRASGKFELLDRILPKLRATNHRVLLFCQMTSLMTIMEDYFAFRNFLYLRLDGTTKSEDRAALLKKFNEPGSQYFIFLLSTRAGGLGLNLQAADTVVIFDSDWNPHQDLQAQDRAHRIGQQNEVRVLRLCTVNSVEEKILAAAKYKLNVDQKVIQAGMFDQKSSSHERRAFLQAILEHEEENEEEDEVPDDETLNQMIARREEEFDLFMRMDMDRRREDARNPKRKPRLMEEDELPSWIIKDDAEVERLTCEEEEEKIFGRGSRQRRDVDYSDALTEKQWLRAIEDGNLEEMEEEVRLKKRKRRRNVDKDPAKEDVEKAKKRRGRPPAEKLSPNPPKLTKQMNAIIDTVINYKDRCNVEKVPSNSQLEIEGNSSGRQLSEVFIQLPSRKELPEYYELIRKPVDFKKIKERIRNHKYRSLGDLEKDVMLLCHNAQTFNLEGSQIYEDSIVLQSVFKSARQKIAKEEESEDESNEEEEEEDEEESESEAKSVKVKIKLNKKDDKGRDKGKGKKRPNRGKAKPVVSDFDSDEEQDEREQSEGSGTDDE

SMILES	IC50 (BRM)	Ratio* (BRG1 IC50 (μM) divided by BRM IC50 (μM)) (BRM)	IC50 (BRG-1)
C[C@@H]1CN(c2cccc(-c3ccc4cnc(CNC(=O)c5cc(F)c(C(F)F)c(S(C)(=O)=O)c5)cc4n3)n2)C[C@H](C)O1 [Compound 147]	15.6 nM	25.22	394 nM
COc1nn([C@H]2C[C@H](F)C2)cc1-c1ccc2cnc(CNC(=O)c3ccc4c(c3)S(=O)(=O)CCOC4)cc2c1 [Compound 149]	36.6 nM	22.13	810 nM
C[C@@H]1CN(c2nccc(-c3ccc4cnc(CNC(=O)c5ccc(C(F)F)c(S(C)(=O)=O)c5)cc4n3)n2)C[C@H](C)O1 [Compound 157]	14.5 nM	21.99	320 nM
C[C@@H]1CN(c2cccc(-c3ccc4cnc(CNC(=O)c5ccc(C(F)F)c(S(C)(=O)=O)c5)cc4n3)n2)C[C@@H](C)O1 [Compound 158]	13.1 nM	20.03	262 nM
C[C@@H]1CN(c2cccc(-c3ccc4nnc(CNC(=O)c5ccc6c(c5)S(=O)(=O)CCOC6)cc4c3)n2)C[C@H](C)O1 [Compound 160]	3 nM	4.54	13.6 nM
C[C@@H]1CN(c2cccc(-c3cnc4cnc(CNC(=O)c5ccc6c(c5)S(=O)(=O)CCOC6)cc4c3)n2)C[C@H](C)O1 [Compound 161]	4.7 nM	9.62	45.2 nM
C[C@H]1CN(c2cccc(-c3ccc4cnc(CNC(=O)c5ccc(C(F)F)c(S(C)(=O)=O)c5)cc4n3)n2)C[C@H](C)O1 [Compound 162]	38.4 nM	14.67	564 nM
C[C@@H]1CN(c2cncc(-c3ccc4cnc(CNC(=O)c5ccc(C(F)F)c(S(C)(=O)=O)c5)cc4n3)n2)C[C@H](C)O1 [Compound 163]	20.8 nM	12.71	264 nM
CS(=O)(=O)c1cc(C(=O)NCc2cc3nc(-c4cncc(C5CC5)n4)ccc3cn2)ccc1CC(F)F [Compound 164]	110 nM	12.80	1410 nM

Next, values leading:

IC50 (BRM)	Ratio* (BRG1 IC50 (μM) divided by BRM IC50 (μM)) (BRM)	IC50 (BRG-1)	SMILES
455 nM	6.80	3090 nM	COc1nn([C@H]2C[C@@H](F)C2)cc1-c1ccc2cnc(CNC(=O)c3ccc4c(c3)S(=O)(=O)CCOC4)cc2n1 [Compound 148]
33.8 nM	11.71	396 nM	O=C(NCc1cc2nc(N3CCCc4cccnc43)ccc2cn1)c1ccc2c(c1)S(=O)(=O)CCOC2 [Compound 150]
60.8 nM	11.00	669 nM	Cn1ccc2c(-c3ccc4cnc(CNC(=O)c5ccc6c(c5)S(=O)(=O)CCOC6)cc4n3)ccnc21 [Compound 151]
136 nM	15.77	2140 nM	COc1nn([C@H]2C[C@H](F)C2)cc1-c1ccc2cnc(CNC(=O)c3ccc4c(c3)S(=O)(=O)CCOC4)cc2n1 [Compound 152]
46.3 nM	9.74	451 nM	C[C@@H]1CN(c2cc(-c3ccc4cnc(CNC(=O)c5ccc6c(c5)S(=O)(=O)CCOC6)cc4n3)ccn2)C[C@H](C)O1 [Compound 153]
142 nM	14.94	2130 nM	O=C(NCc1cc2nc(-c3cccc(C4(F)CCC4)n3)ccc2cn1)c1ccc2c(c1)S(=O)(=O)CCOC2 [Compound 154]
4.5 nM	5.59	25.2 nM	C[C@@H]1CN(c2cccc(-c3ccc4cnc(CNC(=O)c5ccc6c(c5)S(=O)(=O)[C@@H](C)COC6)cc4n3)n2)C[C@H](C)O1 [Compound 155]
366 nM	5.25	1920 nM	O=C(NCc1cc2nc(N3CCCc4ncccc43)ccc2cn1)c1ccc2c(c1)S(=O)(=O)CCOC2 [Compound 156]
36.7 nM	11.15	409 nM	C[C@@H]1CN(c2cccc(-c3ccc4cnc(CNC(=O)c5ccc6c(c5)S(=O)(=O)[C@H](C)COC6)cc4n3)n2)C[C@H](C)O1 [Compound 159]
116 nM	18.39	2120 nM	CC(C)Oc1cccc(-c2ccc3cnc(CNC(=O)c4ccc5c(c4)S(=O)(=O)CCOC5)cc3n2)n1 [Compound 165]
16.8 nM	12.29	206 nM	C[C@@H]1CN(c2ccc(F)c(-c3ccc4cnc(CNC(=O)c5ccc6c(c5)S(=O)(=O)CCOC6)cc4n3)n2)C[C@H](C)O1 [Compound 166]
59.3 nM	13.95	827 nM	O=C(NCc1cc2nc(-c3cccc(OCC(F)F)n3)ccc2cn1)c1ccc2c(c1)S(=O)(=O)CCOC2 [Compound 167]
